Tests used:
pERK level in H358 cells = experiment: pERK and ERK protein content assay in H358 cells (ELISA); assay type: cell-based; conditions: Homo sapiens, NCI-H358, compound 1 μM, 24 h, pERK/ERK ratio compared with DMSO group, read-out: Inhibition rate (%) of pERK level
Method in brief: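 H358 cells grown one day, then treated 24 h with compound at 1 μM. pERK and ERK in lysates measured by ELISA; pERK/ERK ratio expressed as percent inhibition versus DMSO.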

H358 cells = experiment: Antiproliferative activity against H358 cells (Cell Titer Glow, ultra-low attachment plate); assay type: cell-based; conditions: Homo sapiens, NCI-H358, 72 h, 96-well ultra-low attachment plate, three days after addition of compound, Cell Titer Glow
Description: 2500 H358 cells were seeded in a 96-well ultra-low attachment plate (corning, 7007). After one day of growth, a serially diluted compound (a maximum concentration of 5 μM, 5-fold dilution, a total of five doses) was added. Three days after the addition of the compound, Cell Titer Glow (Promega, G9681) was added to evaluate pellet growth, and the IC50 value was calculated.

SMILES	IC50 (H358 cells)	inhibition at 1 µM (pERK level in H358 cells)
C=CC(=O)N1CC2(CCN(c3nc(N(C)CCN4CCC4)nc4c(OCC(F)(F)F)c(-c5c(C)ccc6[nH]ncc56)c(C5CC5)cc34)CC2)C1 [Compound 226]	< 0.3 µM	> 90%
C=CC(=O)N1CC2(CCN(c3nc(N(C)CCN4CC(C)C4)nc4c(OCC(F)(F)F)c(-c5c(C)ccc6[nH]ncc56)c(C5CC5)cc34)CC2)C1 [Compound 227]	< 0.3 µM	> 90%
C=CC(=O)N1CC2(CCN(c3nc(N(C)CCN4CC(F)C4)nc4c(OCC(F)(F)F)c(-c5c(C)ccc6[nH]ncc56)c(C5CC5)cc34)CC2)C1 [Compound 228]	< 0.3 µM	> 90%
C=CC(=O)N1CC2(CCN(c3nc(N(C)CCN4CC(O)C4)nc4c(OCC(F)(F)F)c(-c5c(C)ccc6[nH]ncc56)c(C5CC5)cc34)CC2)C1 [Compound 229]	< 0.3 µM	> 90%
C=CC(=O)N1CC2(CCN(c3nc(N(C)CCN4CC(OC)C4)nc4c(OCC(F)(F)F)c(-c5c(C)ccc6[nH]ncc56)c(C5CC5)cc34)CC2)C1 [Compound 230]	0.3 to 1 µM	50 to 90%
C=CC(=O)N1CC2(CCN(c3nc(N(C)CCN4CC(C#N)C4)nc4c(OCC(F)(F)F)c(-c5c(C)ccc6[nH]ncc56)c(C5CC5)cc34)CC2)C1 [Compound 231]	0.3 to 1 µM	50 to 90%
C=CC(=O)N1CC2(CCN(c3nc(N(C)CCN4CCCC4)nc4c(OCC(F)(F)F)c(-c5c(C)ccc6[nH]ncc56)c(C5CC5)cc34)CC2)C1 [Compound 232]	< 0.3 µM	> 90%
C=CC(=O)N1CC2(CCN(c3nc(N(C)CCN4CC[C@H](C)C4)nc4c(OCC(F)(F)F)c(-c5c(C)ccc6[nH]ncc56)c(C5CC5)cc34)CC2)C1 [Compound 233]	< 0.3 µM	> 90%
C=CC(=O)N1CC2(CCN(c3nc(N(C)CCN4CC[C@H](O)C4)nc4c(OCC(F)(F)F)c(-c5c(C)ccc6[nH]ncc56)c(C5CC5)cc34)CC2)C1 [Compound 234]	< 0.3 µM	> 90%
C=CC(=O)N1CC2(CCN(c3nc(N(C)CCN4CC[C@H](OC)C4)nc4c(OCC(F)(F)F)c(-c5c(C)ccc6[nH]ncc56)c(C5CC5)cc34)CC2)C1 [Compound 235]	< 0.3 µM	> 90%
C=CC(=O)N1CC2(CCN(c3nc(N(C)CCN4CC[C@H](F)C4)nc4c(OCC(F)(F)F)c(-c5c(C)ccc6[nH]ncc56)c(C5CC5)cc34)CC2)C1 [Compound 236]	< 0.3 µM	> 90%
C=CC(=O)N1CC2(CCN(c3nc(N4CC(N5CC(C)C5)C4)nc4c(OCC(F)(F)F)c(-c5c(C)ccc6[nH]ncc56)c(C5CC5)cc34)CC2)C1 [Compound 237]	< 0.3 µM	> 90%
C=CC(=O)N1CC2(CCN(c3nc(N4CC(N5CC(C#N)C5)C4)nc4c(OCC(F)(F)F)c(-c5c(C)ccc6[nH]ncc56)c(C5CC5)cc34)CC2)C1 [Compound 238]	0.3 to 1 µM	> 90%
C=CC(=O)N1CC2(CCN(c3nc(N4CC(N5CC(OCC(F)(F)F)C5)C4)nc4c(OCC(F)(F)F)c(-c5c(C)ccc6[nH]ncc56)c(C5CC5)cc34)CC2)C1 [Compound 239]	0.3 to 1 µM	50 to 90%
C=CC(=O)N1CC2(CCN(c3nc(N4CC(N5CC(C)(O)C5)C4)nc4c(OCC(F)(F)F)c(-c5c(C)ccc6[nH]ncc56)c(C5CC5)cc34)CC2)C1 [Compound 240]	< 0.3 µM	> 90%
C=CC(=O)N1CC2(CCN(c3nc(N4CC(N5CC(S(C)(=O)=O)C5)C4)nc4c(OCC(F)(F)F)c(-c5c(C)ccc6[nH]ncc56)c(C5CC5)cc34)CC2)C1 [Compound 241]	0.3 to 1 µM	50 to 90%
C=CC(=O)N1CC2(CCN(c3nc(N4CC(N5CC(CC#N)C5)C4)nc4c(OCC(F)(F)F)c(-c5c(C)ccc6[nH]ncc56)c(C5CC5)cc34)CC2)C1 [Compound 242]	< 0.3 µM	> 90%
C=CC(=O)N1CC2(CCN(c3nc(N4CC(N5CC(CO)C5)C4)nc4c(OCC(F)(F)F)c(-c5c(C)ccc6[nH]ncc56)c(C5CC5)cc34)CC2)C1 [Compound 243]	< 0.3 µM	> 90%
C=CC(=O)N1CC2(CCN(c3nc(N4CC(N5CC(N(C)C)C5)C4)nc4c(OCC(F)(F)F)c(-c5c(C)ccc6[nH]ncc56)c(C5CC5)cc34)CC2)C1 [Compound 244]	< 0.3 µM	> 90%
C=CC(=O)N1CC2(CCN(c3nc(N4CC(N5CCC[C@H]5C)C4)nc4c(OCC(F)(F)F)c(-c5c(C)ccc6[nH]ncc56)c(C5CC5)cc34)CC2)C1 [Compound 245]	< 0.3 µM	> 90%

Continued, in another order:

IC50 (H358 cells)	SMILES	inhibition at 1 µM (pERK level in H358 cells)
< 0.3 µM	C=CC(=O)N1CC2(CCN(c3nc(N4CC(N5CCC[C@@H]5C)C4)nc4c(OCC(F)(F)F)c(-c5c(C)ccc6[nH]ncc56)c(C5CC5)cc34)CC2)C1 [Compound 246]	> 90%
< 0.3 µM	C=CC(=O)N1CC2(CCN(c3nc(N4CC(N5CC[C@H](C)C5)C4)nc4c(OCC(F)(F)F)c(-c5c(C)ccc6[nH]ncc56)c(C5CC5)cc34)CC2)C1 [Compound 247]	> 90%
< 0.3 µM	C=CC(=O)N1CC2(CCN(c3nc(N4CC(N5CC[C@@H](C)C5)C4)nc4c(OCC(F)(F)F)c(-c5c(C)ccc6[nH]ncc56)c(C5CC5)cc34)CC2)C1 [Compound 248]	> 90%
0.3 to 1 µM	C=CC(=O)N1CC2(CCN(c3nc(N4CC(N5CCC[C@@H]5C#N)C4)nc4c(OCC(F)(F)F)c(-c5c(C)ccc6[nH]ncc56)c(C5CC5)cc34)CC2)C1 [Compound 249]	50 to 90%
0.3 to 1 µM	C=CC(=O)N1CC2(CCN(c3nc(N4CC(N5CCC[C@H]5C#N)C4)nc4c(OCC(F)(F)F)c(-c5c(C)ccc6[nH]ncc56)c(C5CC5)cc34)CC2)C1 [Compound 250]	50 to 90%
< 0.3 µM	C=CC(=O)N1CC2(CCN(c3nc(N4CC(N5CCC[C@@H]5CO)C4)nc4c(OCC(F)(F)F)c(-c5c(C)ccc6[nH]ncc56)c(C5CC5)cc34)CC2)C1 [Compound 251]	> 90%
< 0.3 µM	C=CC(=O)N1CC2(CCN(c3nc(N4CC(N5CCC[C@H]5CO)C4)nc4c(OCC(F)(F)F)c(-c5c(C)ccc6[nH]ncc56)c(C5CC5)cc34)CC2)C1 [Compound 252]	> 90%
0.3 to 1 µM	C=CC(=O)N1CC2(CCN(c3nc(N4CC(N5CC[C@H](C(C)(C)O)C5)C4)nc4c(OCC(F)(F)F)c(-c5c(C)ccc6[nH]ncc56)c(C5CC5)cc34)CC2)C1 [Compound 253]	> 90%
0.3 to 1 µM	C=CC(=O)N1CC2(CCN(c3nc(N4CC(N5CC[C@@H](C(C)(C)O)C5)C4)nc4c(OCC(F)(F)F)c(-c5c(C)ccc6[nH]ncc56)c(C5CC5)cc34)CC2)C1 [Compound 254]	> 90%
< 0.3 µM	C=CC(=O)N1CC2(CCN(c3nc(N4CC(N5CC[C@H](N(C)C)C5)C4)nc4c(OCC(F)(F)F)c(-c5c(C)ccc6[nH]ncc56)c(C5CC5)cc34)CC2)C1 [Compound 255]	> 90%
< 0.3 µM	C=CC(=O)N1CC2(CCN(c3nc(N4CC(N5CC[C@@H](N(C)C)C5)C4)nc4c(OCC(F)(F)F)c(-c5c(C)ccc6[nH]ncc56)c(C5CC5)cc34)CC2)C1 [Compound 256]	> 90%
0.3 to 1 µM	C=CC(=O)N1CC2(CCN(c3nc(N4CC(N5CC[C@H](C#N)C5)C4)nc4c(OCC(F)(F)F)c(-c5c(C)ccc6[nH]ncc56)c(C5CC5)cc34)CC2)C1 [Compound 257]	> 90%
0.3 to 1 µM	C=CC(=O)N1CC2(CCN(c3nc(N4CC(N5CC[C@@H](C#N)C5)C4)nc4c(OCC(F)(F)F)c(-c5c(C)ccc6[nH]ncc56)c(C5CC5)cc34)CC2)C1 [Compound 258]	> 90%
< 0.3 µM	C=CC(=O)N1CC2(CCN(c3nc(N4CC(N5C[C@@H](O)C[C@H]5C)C4)nc4c(OCC(F)(F)F)c(-c5c(C)ccc6[nH]ncc56)c(C5CC5)cc34)CC2)C1 [Compound 259]	> 90%
< 0.3 µM	C=CC(=O)N1CC2(CCN(c3nc(N4CC(N5C[C@H](O)C[C@H]5C)C4)nc4c(OCC(F)(F)F)c(-c5c(C)ccc6[nH]ncc56)c(C5CC5)cc34)CC2)C1 [Compound 260]	> 90%
< 0.3 µM	C=CC(=O)N1CC2(CCN(c3nc(N4CC(N5C[C@H](O)[C@@H](F)C5)C4)nc4c(OCC(F)(F)F)c(-c5c(C)ccc6[nH]ncc56)c(C5CC5)cc34)CC2)C1 [Compound 261]	> 90%
< 0.3 µM	C=CC(=O)N1CC2(CCN(c3nc(N4CC(N5C[C@@H](O)[C@@H](F)C5)C4)nc4c(OCC(F)(F)F)c(-c5c(C)ccc6[nH]ncc56)c(C5CC5)cc34)CC2)C1 [Compound 262]	> 90%
< 0.3 µM	C=CC(=O)N1CC2(CCN(c3nc(N4CC(N5C[C@H](OC)[C@@H](F)C5)C4)nc4c(OCC(F)(F)F)c(-c5c(C)ccc6[nH]ncc56)c(C5CC5)cc34)CC2)C1 [Compound 263]	> 90%
< 0.3 µM	C=CC(=O)N1CC2(CCN(c3nc(N4CC(N5C[C@H](F)[C@H](OC)C5)C4)nc4c(OCC(F)(F)F)c(-c5c(C)ccc6[nH]ncc56)c(C5CC5)cc34)CC2)C1 [Compound 264]	> 90%
< 0.3 µM	C=CC(=O)N1CC2(CCN(c3nc(N4CC(N5C[C@@H](C)[C@@H](O)C5)C4)nc4c(OCC(F)(F)F)c(-c5c(C)ccc6[nH]ncc56)c(C5CC5)cc34)CC2)C1 [Compound 265]	> 90%
< 0.3 µM	C=CC(=O)N1CC2(CCN(c3nc(N4CC(N5C[C@@H](C)[C@@H](OC)C5)C4)nc4c(OCC(F)(F)F)c(-c5c(C)ccc6[nH]ncc56)c(C5CC5)cc34)CC2)C1 [Compound 266]	> 90%
